For 32 compounds, Activity results are on record in patent publication US7452887B2, “Quinoline- and isoquinoline-based compounds exhibiting ATP-utilizing enzyme inhibitory activity, and compositions, and uses thereof” (Amphora Discovery Corporation, priority 2004, dated 2008).

This experiment has as its target MAPKAPK2 (Homo sapiens, UniProt P49137). Put plainly: HTS ATP-utilizing enzyme assay, off-chip mobility-shift (Caliper HTS 250). It counts as biochemical. The settings on record: test compound 10 μM, kinase listed = active (greater than six-sigma from the mean activity of inactive compounds). The text has this:
The following procedures describe the reagent and plate preparation for a HTS of an ATP-utilizing enzyme, such as a protein kinase, run in an off-chip mobility-shift assay format. The following provides an HTS protocol for running a protein kinase HTS screen on a Caliper HTS 250 microfluidics system. The following parameters are dependent on the protein kinase used and can be determined by one skilled in the art as part of a typical assay development process. For example, the peptide substrate used can be identified from the current literature, by screening a peptide library of potential protein kinase substrates, or by other applicable means accepted in the field.
The following table provides typical screen assay parameters appropriate for a Caliper HTS 250 microfluidics system.
The reagents and buffers listed in the following table are generally applicable for developing and running an HTS screen on a human protein kinase using the Caliper HTS 250 system.
The following reagents were prepared using the previously described buffers.
A 2× Master Buffer solution was prepared by combining 200 mL of 1 M HEPES, pH 7.5, 2 mL of 10% Triton X-100, 20 mL of 10% BSA, and 778 mL of H2O.
A TCB Buffer solution was prepared by combining 125 mL of 2× Master Buffer, 10 mL of 0.5 M EDTA, 6.25 mL of 4% coating reagent, 1.01 mL of 100% DMSO, and 107.74 mL H2O.
Assays to determine the kinase inhibitory activity of compounds of the present disclosure were performed using a Caliper HTS 250 microfluidics device, Greiner U-bottom assay plates, a Multidrop for transfer of reagents, and Biomek FX (AMNCBM03) software. Initially, 2.4 μL of a 1 mM solution of a test compound in 100% DMSO was added to a well of the Greiner U-bottom plate. A single Greiner U-bottom plate having 24×16 wells could include multiple test compounds. […] Using the Biomek FX, 10 μL of 0.5 M EDTA was added by the span-8 to wells, indicated as 100% Control and 2.4 μL of 100% DMSO was added by the span-8 to wells, indicated as 0% Control. […] The total reaction volume in each well was 25 μL, and the concentration of the test compound was 10 μM. The assay plate was incubated for 2.5 hrs at 20° C. to 22° C. […] The inhibition of the ATP-utilizing enzyme, such as a particular protein kinase, was determined by measuring the ratio of the peptide substrate to phosphorylated product for each well of the assay plate using the Caliper HTS 250 system.
The use of six-sigma statistical limits represents a conservative method for declaring potential hits among targets. The six-sigma activity, as well as the mean population activity, can be different for each target enzyme.

Sequence of MAPKAPK2 (P49137 whole entry): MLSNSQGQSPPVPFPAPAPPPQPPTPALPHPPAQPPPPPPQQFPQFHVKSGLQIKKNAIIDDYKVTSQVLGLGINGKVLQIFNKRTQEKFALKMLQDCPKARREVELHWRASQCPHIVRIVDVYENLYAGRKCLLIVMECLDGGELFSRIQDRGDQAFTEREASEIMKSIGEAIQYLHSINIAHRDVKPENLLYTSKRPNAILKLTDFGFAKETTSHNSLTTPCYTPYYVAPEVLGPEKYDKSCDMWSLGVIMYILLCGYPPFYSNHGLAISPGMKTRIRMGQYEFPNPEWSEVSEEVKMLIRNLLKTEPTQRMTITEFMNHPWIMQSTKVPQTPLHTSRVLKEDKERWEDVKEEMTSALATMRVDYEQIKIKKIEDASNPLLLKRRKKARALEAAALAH

Turning to `CN(C)C1CCN(c2ccc(Nc3ccnc4ccc(-c5cncc(C(=O)O)c5)cc34)cc2)C1` (centres unmarked) [5-(4-(4-(3-(dimethylamino)pyrrolidin-1-yl)phenylamino)quinolin-6-yl)nicotinic acid], the Activity entry is listed as “MAPKAPK2”.
For `CN1CCN(c2ccc(Nc3ccnc4ccc(-c5ccc(C(F)(F)F)cc5C(F)(F)F)cc34)cc2)CC1` [6-(2,4-bis(trifluoromethyl)phenyl)-N-(4-(4-methylpiperazin-1-yl)phenyl)quinolin-4-amine] the value was “MAPKAPK2”; for `CN1CCN(c2ccc(Nc3ccnc4ccc(-c5cc(Cl)ccc5Cl)cc34)cc2)CC1` [6-(2,5-dichlorophenyl)-N-(4-(4-methylpiperazin-1-yl)phenyl)quinolin-4-amine], “MAPKAPK2”.
For `CN(C)Cc1ccccc1-c1ccc2nccc(Nc3ccc(N4CCN(C)CC4)cc3)c2c1` [6-(2-((dimethylamino)methyl)phenyl)-N-(4-(4-methylpiperazin-1-yl)phenyl)quinolin-4-amine] the value was “MAPKAPK2”; for `CN(C)C1CCN(c2ccc(Nc3ccnc4ccc(-c5ccc(Cl)c(Cl)c5)cc34)cc2)C1` (centres unmarked) [6-(3,4-dichlorophenyl)-N-(4-(3-(dimethylamino)pyrrolidin-1-yl)phenyl)quinolin-4-amine], “MAPKAPK2”.
Regarding `CN1CCN(c2ccc(Nc3ccnc4ccc(-c5cc(C(F)(F)F)cc(C(F)(F)F)c5)cc34)cc2)CC1` [6-(3,5-bis(trifluoromethyl)phenyl)-N-(4-(4-methylpiperazin-1-yl)phenyl)quinolin-4-amine], the Activity result is given as “MAPKAPK2”.
As to `CN(C)C1CCN(c2ccc(Nc3ccnc4ccc(-c5cccc(OCc6ccccc6)c5)cc34)cc2)C1` (centres unmarked) [6-(3-(benzyloxy)phenyl)-N-(4-(3-(dimethylamino)pyrrolidin-1-yl)phenyl)quinolin-4-amine], the Activity entry is recorded as “MAPKAPK2”.
With `Cc1ccc(-c2ccc3nccc(Nc4ccc(N5CCC(N(C)C)C5)cc4)c3c2)cc1Cl` (centres unmarked) [6-(3-chloro-4-methylphenyl)-N-(4-(3-(dimethylamino)pyrrolidin-1-yl)phenyl)quinolin-4-amine] the entry was “MAPKAPK2”; with `CN(C)C1CCN(c2ccc(Nc3ccnc4ccc(-c5cccc(Cl)c5)cc34)cc2)C1` (centres unmarked) [6-(3-chlorophenyl)-N-(4-(3-(dimethylamino)pyrrolidin-1-yl)phenyl)quinolin-4-amine], “MAPKAPK2”; with `CN(C)C1CCN(c2ccc(Nc3ccnc4ccc(-c5ccc6[nH]c(=O)sc6c5)cc34)cc2)C1` (centres unmarked) [6-(4-(4-(3-(dimethylamino)pyrrolidin-1-yl)phenylamino)quinolin-6-yl)benzo[d]thiazol-2(3H)-one], “MAPKAPK2”.
Consider `CCN(CC)c1ccc(-c2ccc3nccc(Nc4ccc(N5CCC(N(C)C)C5)cc4)c3c2)cc1` (centres unmarked) [6-(4-(diethylamino)phenyl)-N-(4-(3-(dimethylamino)pyrrolidin-1-yl)phenyl)quinolin-4-amine], for which the Activity result is on record as “MAPKAPK2”.
Turning to `CN(C)C1CCN(c2ccc(Nc3ccnc4ccc(-c5ccc(OC(F)F)cc5)cc34)cc2)C1` (centres unmarked) [6-(4-(difluoromethoxy)phenyl)-N-(4-(3-(dimethylamino)pyrrolidin-1-yl)phenyl)quinolin-4-amine], the Activity result was “MAPKAPK2”.
For `CN(C)C1CCN(c2ccc(Nc3ccnc4ccc(-c5ccc(Cl)c(F)c5)cc34)cc2)C1` (centres unmarked) [6-(4-chloro-3-fluorophenyl)-N-(4-(3-(dimethylamino)pyrrolidin-1-yl)phenyl)quinolin-4-amine] the value was “MAPKAPK2”.
With `COc1cc(-c2ccc3nccc(Nc4ccc(N5CCC(N(C)C)C5)cc4)c3c2)ccc1Cl` (centres unmarked) [6-(4-chloro-3-methoxyphenyl)-N-(4-(3-(dimethylamino)pyrrolidin-1-yl)phenyl)quinolin-4-amine] the entry was “MAPKAPK2”; with `Cc1cc(-c2ccc3nccc(Nc4ccc(N5CCC(N(C)C)C5)cc4)c3c2)ccc1Cl` (centres unmarked) [6-(4-chloro-3-methylphenyl)-N-(4-(3-(dimethylamino)pyrrolidin-1-yl)phenyl)quinolin-4-amine], “MAPKAPK2”.
With `CN1CCN(c2ccc(Oc3ccnc4ccc(-c5ccc(Cl)cc5)cc34)cc2)CC1` [6-(4-chlorophenyl)-4-(4-(4-methylpiperazin-1-yl)phenoxy)quinoline] the entry was “MAPKAPK2”; with `CCN(CC)C1CCN(c2ccc(Nc3ccnc4ccc(-c5ccc(Cl)cc5)cc34)cc2)C1` (centres unmarked) [6-(4-chlorophenyl)-N-(4-(3-(diethylamino)pyrrolidin-1-yl)phenyl)quinolin-4-amine], “MAPKAPK2”.
As to `CN(C)C1CCN(c2ccc(Nc3ccnc4ccc(-c5ccc(Cl)cc5)cc34)cc2)C1` (centres unmarked) [6-(4-chlorophenyl)-N-(4-(3-(dimethylamino)pyrrolidin-1-yl)phenyl)quinolin-4-amine], the Activity entry was “MAPKAPK2”.
For `CN1CCN(c2ccc(Nc3ccnc4ccc(-c5ccc(Cl)cc5)cc34)cn2)CC1` [6-(4-chlorophenyl)-N-(6-(4-methylpiperazin-1-yl)pyridin-3-yl)quinolin-4-amine] the value was “MAPKAPK2”; for `CCCN(c1ccc(N2CCN(C)CC2)cc1)c1ccnc2ccc(-c3ccc(OC)cc3)cc12` [6-(4-methoxyphenyl)-N-(4-(4-methylpiperazin-1-yl)phenyl)-N-propylquinolin-4-amine], “MAPKAPK2”; for `CCCN1CCN(c2ccc(Nc3ccnc4ccc(-c5ccc(OC)cc5)cc34)cc2)CC1` [6-(4-methoxyphenyl)-N-(4-(4-propylpiperazin-1-yl)phenyl)quinolin-4-amine], “MAPKAPK2”.
For `CN1CCN(c2ccc(Nc3ccnc4ccc(-c5ccc(Cl)s5)cc34)cc2)CC1` [6-(5-chlorothiophen-2-yl)-N-(4-(4-methylpiperazin-1-yl)phenyl)quinolin-4-amine] the value was “MAPKAPK2”; for `Cc1cc(-c2ccc3nccc(Nc4ccc(N5CCC(N(C)C)C5)cc4)c3c2)cnc1Cl` (centres unmarked) [6-(6-chloro-5-methylpyridin-3-yl)-N-(4-(3-(dimethylamino)pyrrolidin-1-yl)phenyl)quinolin-4-amine], “MAPKAPK2”; for `CN(C)C1CCN(c2ccc(Nc3ccnc4ccc(-c5ccc(Cl)nc5)cc34)cc2)C1` (centres unmarked) [6-(6-chloropyridin-3-yl)-N-(4-(3-(dimethylamino)pyrrolidin-1-yl)phenyl)quinolin-4-amine], “MAPKAPK2”.
With `CN(C)C1CCN(c2ccc(Nc3ccnc4ccc(-c5csc6ccccc56)cc34)cc2)C1` (centres unmarked) [6-(benzo[b]thiophen-3-yl)-N-(4-(3-(dimethylamino)pyrrolidin-1-yl)phenyl)quinolin-4-amine] the entry was “MAPKAPK2”; with `CN(C)C1CCN(c2ccc(Nc3ccnc4ccc(-c5ccc6c(c5)OCO6)cc34)cc2)C1` (centres unmarked) [6-(benzo[d][1,3]dioxol-5-yl)-N-(4-(3-(dimethylamino)pyrrolidin-1-yl)phenyl)quinolin-4-amine], “MAPKAPK2”; with `CN(C)[C@@H]1CCN(c2ccc(Nc3ccnc4ccc(-c5ccc(C#N)cc5)cc34)cc2)C1` [(R)-4-(4-(4-(3-(dimethylamino)pyrrolidin-1-yl)phenylamino)quinolin-6-yl)benzonitrile], “MAPKAPK2”.
On to `CN(C)[C@@H]1CCN(c2ccc(Nc3ccnc4ccc(-c5ccc(Cl)cc5)cc34)cc2)C1` [(R)-6-(4-chlorophenyl)-N-(4-(3-(dimethylamino)pyrrolidin-1-yl)phenyl)quinolin-4-amine], for which the Activity entry is recorded as “MAPKAPK2”.
Take `CN(C)[C@@H]1CCN(c2ccc(Nc3ccnc4ccc(-c5ccc6ccccc6c5)cc34)cc2)C1` [(R)-N-(4-(3-(dimethylamino)pyrrolidin-1-yl)phenyl)-6-(naphthalen-2-yl)quinolin-4-amine]: the Activity result was “MAPKAPK2”.
With `CN(C)[C@H]1CCN(c2ccc(Nc3ccnc4ccc(-c5ccc(C#N)cc5)cc34)cc2)C1` [(S)-4-(4-(4-(3-(dimethylamino)pyrrolidin-1-yl)phenylamino)quinolin-6-yl)benzonitrile] the entry was “MAPKAPK2”; with `CN(C)[C@H]1CCN(c2ccc(Nc3ccnc4ccc(-c5ccc(Cl)cc5)cc34)cc2)C1` [(S)-6-(4-chlorophenyl)-N-(4-(3-(dimethylamino)pyrrolidin-1-yl)phenyl)quinolin-4-amine], “MAPKAPK2”.
`CN(C)[C@H]1CCN(c2ccc(Nc3ccnc4ccc(-c5ccc6ccccc6c5)cc34)cc2)C1` [(S)-N-(4-(3-(dimethylamino)pyrrolidin-1-yl)phenyl)-6-(naphthalen-2-yl)quinolin-4-amine]: the Activity result is reported as “MAPKAPK2”.
